In patent US9066517B2, “Pest control agents for honeybee parasitic pests, and pest control method for honeybee parasitic pests using the pest control agents” (MEIJI SEIKA PHARMA CO., LTD., priority 2013, dated 2015):

Assays:
Format in all cases: in vivo
[1] = test system: Apis mellifera; test: Test Example 2: mortality of honeybees after dipping the abdomens; conditions: rate 10 ppm, abdomens dipped into acetone solution, adult Apis mellifera
Excerpt: (§1) After anesthesized with carbonic acid gas, adults of Apis mellifera collected from a hive were grouped in test cages such that there were 10 to 20 heads per cage. Thereafter, the Apis mellifera were subjected to a chemical treatment by dipping the abdomens into an acetone solution of the compound according to the present invention at predetermined concentrations. After the Apis mellifera air-dried, the recovery of the Apis mellifera from the anesthesia was confirmed. Then, the cages were lidded to leave the Apis mellifera to stand in a thermostatic chamber under dark at 25° C. Note that 50% sucrose water absorbed to absorbent cotton was provided as a bait during the test period.
(§2) The number of Apis mellifera survived at 72 hours after the chemical treatment as well as the numbers of Varroa destructor parasitizing the Apis mellifera before the chemical treatment and at 72 hours after the chemical treatment were examined. The mortality and the parasitism rate were calculated by the following equations. The test was conducted in duplicate. Mortality(%)={((100−survival rate in chemical treated plot)−(100−survival rate in acetone treated plot))/(100−mortalityin acetone treated plot)}×100 Parasitism rate(%)=(number of heads of honeybees parasitized by Varroa destructor/number of honeybees survived)×100

[2] = test system: Varroa destructor; test: Test Example 2: pest control test of Varroa destructor, parasitism rate; conditions: for Parasitism rate before treatment (%): rate 10 ppm group, before chemical treatment (baseline); for Parasitism rate at 72 hours after treatment (%) / Change in parasitism rate (%)*: rate 10 ppm; for Parasitism rate at 72 hours after treatment (%): abdomens dipped; for Change in parasitism rate (%)*: {100 − (parasitism rate at 72 hours after treatment/parasitism rate before treatment) × 100}
Excerpt: as §1, §2

[3] = test system: Apis mellifera; test: Test Example 1: mortality of honeybees after topical application (micro applicator); conditions: acetone solution applied to abdomens of adult Apis mellifera infected with Varroa destructor, 48 hours after treatment
Protocol: (§3) After anesthesized with carbonic acid gas, adults of Apis mellifera infected with Varroa destructor were subjected to a chemical treatment by applying the abdomens with an acetone solution of the compound according to the present invention at predetermined concentrations using a micro applicator. After the treatment, Apis mellifera were transferred into a plastic case and left to stand in a thermostatic chamber under dark at 25° C. During the test period, 50% sucrose water absorbed to absorbent cotton was provided as a bait.
(§4) Forty eight hours after the chemical treatment, the number of Apis mellifera survived and the number of parasitic Varroa destructor were examined. The mortality of the honeybees and the preventive value against Varroa destructor were calculated by the following equations. Mortality(%)={((100−survival rate in chemical treated plot)−(100−survival rate in acetone treated plot))/(100−mortality in acetone treated plot)}×100 Preventive value={(parasitism rate in untreated plot−parasitism rate in chemical treated plot)/(parasitism rate in untreated plot)}×100

[4] = test system: Varroa destructor; test: Test Example 1: pest control test of Varroa destructor, preventive value; conditions: application dose 10 μg, Varroa destructor on adult Apis mellifera, 48 hours after treatment
Protocol: as §3, §4

| SMILES | Mortality at 72 hours after treatment (%) [1] | Parasitism rate before treatment (%) [2] | Parasitism rate at 72 hours after treatment (%) [2] | Change in parasitism rate (%)* [2] | Mortality (%) ([3]; application dose 10 μg) | Preventive value [4] | Mortality (%) ([3]; application dose 5 μg) |
| --- | --- | --- | --- | --- | --- | --- | --- |
| FC(F)(F)C(=S)N=c1ccccn1Cc1ccc(Cl)nc1 [Compound 1-20, N-[1-((6-chloropyridin-3-yl)methyl)pyridin-2(1H)-ylidene]-2,2,2-trifluoroethanethioamide] | 0% | 51% | 23% | −55% |  |  |  |
| O=C(N=c1ccccn1Cc1ccc(Cl)nc1)C(F)(F)F [Compound P212, N-[1-((6-chloropyridin-3-yl)methyl)pyridin-2(1H)-ylidene]-2,2,2-trifluoroacetamide] | 0% | 17% | 10% | −41% | 0% | 100 |  |
| CC(C)[C@H](Nc1ccc(C(F)(F)F)cc1Cl)C(=O)OC(C#N)c1cccc(Oc2ccccc2)c1 (some centres unmarked) [Fluvalinate, reference compound] |  |  |  |  |  |  | 64% |
